From ChEMBL document CHEMBL3885861, “Open TG-GATES”

Species on record: Rattus norvegicus
Test: Open TG-GATES - Regimen: Single
Assay type: toxicity, organism-based, Sprague-Dawley
Parameters: regimen Single, gender Male, age 6 weeks
Details: in vivo, po, route gavage; for TG / TP / gamma-GTP / ALP / ALT / AST / BUN / CRE / Ca / DBIL / IP / K / LDH / Na / PL / RALB / TBIL / TC: tissue Plasma; for Bas / Eos / Fbg / Hb / Ht / Lym / MCHC / Mono / Neu / PT / Plat / RBC / Ret / WBC / MCH: tissue Blood; for KIDNEY_L / KIDNEY_R / KIDNEY_TOTAL: tissue Kidney; for LIVER: tissue Liver
[1] = 0 mg/kg, 24 h, dose level Control

CCC(C)(C)C(=O)O[C@H]1C[C@@H](C)C=C2C=C[C@H](C)[C@H](CC[C@@H]3C[C@@H](O)CC(=O)O3)[C@H]21 [SIMVASTATIN]
TG [1]: 76.6 mg/dL
TP [1]: 5.5 g/dL
gamma-GTP [1]: 1.6 IU/L
TERMINAL_BW (40 mg/kg, 3 h, dose level Low): 203.4 g
Bas (40 mg/kg, 3 h, dose level Low): 0%
Eos (40 mg/kg, 3 h, dose level Low): 0.6%
Fbg (40 mg/kg, 3 h, dose level Low): 213.2 mg/dL
Hb (40 mg/kg, 3 h, dose level Low): 12.4 g/dL
Ht (40 mg/kg, 3 h, dose level Low): 37.8%
Lym (40 mg/kg, 3 h, dose level Low): 81.6%
MCHC (40 mg/kg, 3 h, dose level Low): 32.8%
Mono (40 mg/kg, 3 h, dose level Low): 6%
Neu (40 mg/kg, 3 h, dose level Low): 12%
PT (40 mg/kg, 3 h, dose level Low): 11 s
Plat (40 mg/kg, 3 h, dose level Low): 112.7 x10_4/uL
RBC (40 mg/kg, 3 h, dose level Low): 568 x10_4/ul
Ret (40 mg/kg, 3 h, dose level Low): 10%
WBC (40 mg/kg, 3 h, dose level Low): 120.8 x10_2/uL
KIDNEY_L (40 mg/kg, 3 h, dose level Low): 0.9 g
KIDNEY_R (40 mg/kg, 3 h, dose level Low): 0.9 g
KIDNEY_TOTAL (40 mg/kg, 3 h, dose level Low): 1.9 g
LIVER (40 mg/kg, 3 h, dose level Low): 9.7 g
ALP (40 mg/kg, 3 h, dose level Low): 793.6 IU/L
ALT (40 mg/kg, 3 h, dose level Low): 31.4 IU/L
AST (40 mg/kg, 3 h, dose level Low): 61.6 IU/L
BUN (40 mg/kg, 3 h, dose level Low): 13.6 mg/dL
CRE (40 mg/kg, 3 h, dose level Low): 0.6 mg/dL
Ca (40 mg/kg, 3 h, dose level Low): 10.8 mg/dL
DBIL (40 mg/kg, 3 h, dose level Low): 0.04 mg/dL
IP (40 mg/kg, 3 h, dose level Low): 8.9 mg/dL
K (40 mg/kg, 3 h, dose level Low): 4.4 meq/L
LDH (40 mg/kg, 3 h, dose level Low): 91.8 IU/L
Na (40 mg/kg, 3 h, dose level Low): 137.8 meq/L
PL (40 mg/kg, 3 h, dose level Low): 144.6 mg/dL
RALB (40 mg/kg, 3 h, dose level Low): 3.8 g/dL
TBIL (40 mg/kg, 3 h, dose level Low): 0.3 mg/dL
TC (40 mg/kg, 3 h, dose level Low): 77.4 mg/dL
TG (40 mg/kg, 3 h, dose level Low): 71.2 mg/dL
TP (40 mg/kg, 3 h, dose level Low): 5.6 g/dL
gamma-GTP (40 mg/kg, 3 h, dose level Low): 1.4 IU/L
TERMINAL_BW (40 mg/kg, 6 h, dose level Low): 196.1 g
Bas (40 mg/kg, 6 h, dose level Low): 0%
Eos (40 mg/kg, 6 h, dose level Low): 1%
Fbg (40 mg/kg, 6 h, dose level Low): 216.2 mg/dL
Hb (40 mg/kg, 6 h, dose level Low): 13.4 g/dL
Ht (40 mg/kg, 6 h, dose level Low): 41.2%
Lym (40 mg/kg, 6 h, dose level Low): 81.6%
MCH (40 mg/kg, 6 h, dose level Low): 21.8 pg
MCHC (40 mg/kg, 6 h, dose level Low): 32.6%
Mono (40 mg/kg, 6 h, dose level Low): 7.4%
Neu (40 mg/kg, 6 h, dose level Low): 10.2%
Plat (40 mg/kg, 6 h, dose level Low): 112.9 x10_4/uL
RBC (40 mg/kg, 6 h, dose level Low): 615.8 x10_4/ul
Ret (40 mg/kg, 6 h, dose level Low): 9.1%
WBC (40 mg/kg, 6 h, dose level Low): 93.2 x10_2/uL
KIDNEY_L (40 mg/kg, 6 h, dose level Low): 0.9 g
KIDNEY_R (40 mg/kg, 6 h, dose level Low): 0.9 g
KIDNEY_TOTAL (40 mg/kg, 6 h, dose level Low): 1.8 g
LIVER (40 mg/kg, 6 h, dose level Low): 8.7 g
ALP (40 mg/kg, 6 h, dose level Low): 826.8 IU/L
ALT (40 mg/kg, 6 h, dose level Low): 32.8 IU/L
AST (40 mg/kg, 6 h, dose level Low): 58.6 IU/L
CRE (40 mg/kg, 6 h, dose level Low): 0.5 mg/dL
Ca (40 mg/kg, 6 h, dose level Low): 10.2 mg/dL
DBIL (40 mg/kg, 6 h, dose level Low): 0.08 mg/dL
IP (40 mg/kg, 6 h, dose level Low): 9.6 mg/dL
K (40 mg/kg, 6 h, dose level Low): 4.4 meq/L
LDH (40 mg/kg, 6 h, dose level Low): 98.4 IU/L
Na (40 mg/kg, 6 h, dose level Low): 137.6 meq/L
PL (40 mg/kg, 6 h, dose level Low): 132.4 mg/dL
RALB (40 mg/kg, 6 h, dose level Low): 3.6 g/dL
TBIL (40 mg/kg, 6 h, dose level Low): 0.4 mg/dL
TC (40 mg/kg, 6 h, dose level Low): 75.8 mg/dL
TG (40 mg/kg, 6 h, dose level Low): 50.8 mg/dL
TP (40 mg/kg, 6 h, dose level Low): 5.6 g/dL
gamma-GTP (40 mg/kg, 6 h, dose level Low): 1.2 IU/L
TERMINAL_BW (40 mg/kg, 9 h, dose level Low): 200.4 g
Bas (40 mg/kg, 9 h, dose level Low): 0%
Eos (40 mg/kg, 9 h, dose level Low): 0.8%
Fbg (40 mg/kg, 9 h, dose level Low): 214.8 mg/dL
Hb (40 mg/kg, 9 h, dose level Low): 13.2 g/dL
Ht (40 mg/kg, 9 h, dose level Low): 40.1%
Lym (40 mg/kg, 9 h, dose level Low): 78.6%
MCH (40 mg/kg, 9 h, dose level Low): 22 pg
MCHC (40 mg/kg, 9 h, dose level Low): 32.9%
Mono (40 mg/kg, 9 h, dose level Low): 7.8%
Neu (40 mg/kg, 9 h, dose level Low): 12.8%
PT (40 mg/kg, 9 h, dose level Low): 11.7 s
Plat (40 mg/kg, 9 h, dose level Low): 110 x10_4/uL
RBC (40 mg/kg, 9 h, dose level Low): 601.2 x10_4/ul
Ret (40 mg/kg, 9 h, dose level Low): 9.1%
WBC (40 mg/kg, 9 h, dose level Low): 101.8 x10_2/uL
KIDNEY_L (40 mg/kg, 9 h, dose level Low): 0.9 g
KIDNEY_R (40 mg/kg, 9 h, dose level Low): 0.9 g
KIDNEY_TOTAL (40 mg/kg, 9 h, dose level Low): 1.8 g
LIVER (40 mg/kg, 9 h, dose level Low): 8.2 g
ALP (40 mg/kg, 9 h, dose level Low): 749.6 IU/L
ALT (40 mg/kg, 9 h, dose level Low): 32.8 IU/L
AST (40 mg/kg, 9 h, dose level Low): 58.4 IU/L
BUN (40 mg/kg, 9 h, dose level Low): 12.6 mg/dL
CRE (40 mg/kg, 9 h, dose level Low): 0.7 mg/dL
DBIL (40 mg/kg, 9 h, dose level Low): 0.016 mg/dL
K (40 mg/kg, 9 h, dose level Low): 4.6 meq/L
LDH (40 mg/kg, 9 h, dose level Low): 91 IU/L
Na (40 mg/kg, 9 h, dose level Low): 138 meq/L
PL (40 mg/kg, 9 h, dose level Low): 118.4 mg/dL
RALB (40 mg/kg, 9 h, dose level Low): 3.7 g/dL
TBIL (40 mg/kg, 9 h, dose level Low): 0.4 mg/dL
TC (40 mg/kg, 9 h, dose level Low): 64.8 mg/dL
TG (40 mg/kg, 9 h, dose level Low): 42 mg/dL
TP (40 mg/kg, 9 h, dose level Low): 5.4 g/dL
gamma-GTP (40 mg/kg, 9 h, dose level Low): 2 IU/L
TERMINAL_BW (40 mg/kg, 24 h, dose level Low): 216.2 g
Bas (40 mg/kg, 24 h, dose level Low): 0%
Eos (40 mg/kg, 24 h, dose level Low): 1%
Fbg (40 mg/kg, 24 h, dose level Low): 221.2 mg/dL
Hb (40 mg/kg, 24 h, dose level Low): 12.5 g/dL
Ht (40 mg/kg, 24 h, dose level Low): 38.2%
Lym (40 mg/kg, 24 h, dose level Low): 78.6%
MCHC (40 mg/kg, 24 h, dose level Low): 32.8%
Mono (40 mg/kg, 24 h, dose level Low): 9.8%
Neu (40 mg/kg, 24 h, dose level Low): 11%
Plat (40 mg/kg, 24 h, dose level Low): 119.9 x10_4/uL
RBC (40 mg/kg, 24 h, dose level Low): 588.4 x10_4/ul
WBC (40 mg/kg, 24 h, dose level Low): 118.8 x10_2/uL
KIDNEY_L (40 mg/kg, 24 h, dose level Low): 1 g
KIDNEY_R (40 mg/kg, 24 h, dose level Low): 1 g
KIDNEY_TOTAL (40 mg/kg, 24 h, dose level Low): 2 g
LIVER (40 mg/kg, 24 h, dose level Low): 10.8 g
ALP (40 mg/kg, 24 h, dose level Low): 866.2 IU/L
ALT (40 mg/kg, 24 h, dose level Low): 41.6 IU/L
AST (40 mg/kg, 24 h, dose level Low): 63.6 IU/L
BUN (40 mg/kg, 24 h, dose level Low): 18.6 mg/dL
CRE (40 mg/kg, 24 h, dose level Low): 0.5 mg/dL
Ca (40 mg/kg, 24 h, dose level Low): 10.8 mg/dL
DBIL (40 mg/kg, 24 h, dose level Low): 0.022 mg/dL
IP (40 mg/kg, 24 h, dose level Low): 8.4 mg/dL
K (40 mg/kg, 24 h, dose level Low): 4.6 meq/L
LDH (40 mg/kg, 24 h, dose level Low): 108.4 IU/L
Na (40 mg/kg, 24 h, dose level Low): 140.2 meq/L
PL (40 mg/kg, 24 h, dose level Low): 144.6 mg/dL
RALB (40 mg/kg, 24 h, dose level Low): 3.7 g/dL
TBIL (40 mg/kg, 24 h, dose level Low): 0.3 mg/dL
